Measured values published in patent publication US8048888B2, “Anti-proliferative combination therapy using certain platinum-based chemotherapeutic agents and EGFR inhibitors or pyrimidine analogues” (Agennix AG, priority 2005, dated 2011).
Read-outs that look alike come from different tables or passages of the source.

Experiments:
[1] = test system: MCF7 cell line; assay: SRB assay, simultaneous JM118 and 5FU, 48 hours; format: cell-based; conditions: Homo sapiens, read-out: Growth inhibition
Procedure: For this experiment the human colorectal carcinoma cell line HCT 116 (ATCC order number: CCL-247; Cancer Res (1981) 41, 1751; J Natl Cancer Inst (1982) 69, 767) and the human adenocarcinoma cell line MCF7 (ATCC order number: HTB-22; Cancer Res (1983) 43, 2831; Science (1985) 230, 943) were used.
5FU was dissolved in 0.1% DMSO at a concentration of 20 mM.
Cells were incubated with both compounds simultaneously.

[2] = test system: MX-1 tumor (human breast carcinoma); conditions: for Median tumor volume / T/C %: capecitabine 750 mg/kg/adm PO Q1Dx8
Procedure: Healthy female SWISS nu/nu mice, 6-7 weeks old, 17-22 g, were obtained from Charles River (L'Arbresle, France). Animals were acclimated for seven days in a specific-pathogen-free (SPF) animal care unit before treatment. MX-1 tumor implants were purchased and provided by Oncodesign (Dijon, France). MX-1 is a human breast carcinoma cell line.
To induce MX-1 tumors in nude mice ten female SWISS nude mice were subcutaneously implanted with thawed fragments of MX-1 tumor 24 hours after whole body irradiation with a γ-source (Co^60, INRA, Dijon, France). Mice were continuously monitored and terminated when tumors reached 700 to 1000 mm^3. Tumors were then surgically excised and homogenous fresh fragments were subcutaneously implanted in the right flanks of 130 SWISS nude mice.
Ninety (90) mice were randomized into 9 groups of 10 mice each.
Suspensions were continuously agitated during administration to mice.
The treatment schedule was as follows (all dosage indicated are dosages per administration): • Mice from group 1 received one daily PO (oral) administration of satraplatin vehicle (arachis oil, see above) for 5 consecutive days from D21 (day 21) to D25 (referred to as Q1D×5) in combination with one daily PO administration of capecitabine vehicle (Citrate buffer containing Arabic gum, see above) for 8 consecutive days from D21 to D28 (Q1D×8), • Mice from group 2 received one daily PO administration of capecitabine at 750 mg/kg (milligram per kilogram of body weight) for 8 consecutive days from D21 to D28 (Q1D×8), • Mice from group 3 received one daily PO administration of satraplatin at 5 mg/kg for 5 consecutive days from D21 to D25 (Q1D×5), • Mice from group 4 received one daily PO administration of satraplatin at 15 mg/kg for 5 consecutive days from D21 to D25 (Q1 D×5), • Mice from group 5 received one daily PO administration of satraplatin at 25 mg/kg for 5 consecutive days from D21 to D25 (Q1D×5), • Mice from group 6 received one daily PO administration of satraplatin at 45 mg/kg for 5 consecutive days from D21 to D25 (Q1D×5), • Mice from group 7 received one daily PO administration of satraplatin at 5 mg/kg for 5 consecutive days from D21 to 025 (Q1D×5) in combination with one daily PO administration of capecitabine at 750 mg/kg for 8 consecutive days from D21 to D28 (Q1D×8), • Mice from group 8 received one daily PO administration of satraplatin at 15 mg/kg for 5 consecutive days from D21 to D25 (Q1D×5) in combination with one daily PO administration of capecitabine at 750 mg/kg for 8 consecutive days from D21 to D28 (Q1D×8), • Mice from group 9 received one daily PO administration of satraplatin at 25 mg/kg for 5 consecutive days from D21 to D25 (Q1D×5) in combination with one daily PO administration of capecitabine at 750 mg/kg for 8 consecutive days from D21 to D28 (Q1D×8). Satraplatin was administered 30 minutes after capecitabine. Satraplatin and capecitabine were administered at a dose volume of 10 ml/kg body weight.
During the course of the experiment, viability and behaviour of mice were recorded every day. Mice body weight and tumor volume was recorded twice a week. Mice were terminated when tumor weight was equivalent to 10% of body weight or when a body weight loss of 20% was observed.
Tumor growth inhibition (T/C %) is defined as the ratio of the median tumor volume of a given treated group (test or reference substance) versus the equivalent median volume from the control group. T/C % is calculated as follows: […]
The optimal value is the minimal T/C % ratio that reflects the maximal tumor growth inhibition achieved.
Tumor Log cell kill was calculated using the following formula:
[formula] wherein DT is the doubling time of the tumor.

[3] = test system: A129; assay: SRB cytotoxicity assay, 48 hours, parental cell line A129; format: cell-based; conditions: A129, 48 hours
Procedure: (§1) The parental non-mutated cell line A129 was used as control.
(§2) Briefly, cells were plated in 96 well dishes 24 hours prior to compound addition. The assay was terminated with the addition of cold TCA to a final concentration of 10% and the plates were incubated for one hour at 4° C. The plates were then washed 5 times with water and 100 μl of a Sulforhodamine B solution ([…]) was added to each well. The plate was then incubated for 10 minutes at room temperature before removal of unbound dye by washing with 1% acetic acid. The bound dye was solubilized with 10 mM Trizma base and the absorbance read at OD570.
(§3) Numbers in brackets indicate how often experiments were performed. In each single experiment a minimum of three replica wells was used for each drug concentration and cell line. Shown are mean values and standard deviations of the IC50s, as determined in the individual experiments. RR denominates the relative resistance, i.e. the relative level of resistance conferred to the indicated drugs.

[4] = test system: A129 cp80 cell line; assay: SRB cytotoxicity assay, 48 hours, cisplatin-resistant A129 cp80; format: cell-based
Procedure: as §1, §2, §3

[5] = test system: UM-UC-3 cell line; assay: SRB assay, sequential: JM-118 48 hours, followed by gemcitabine 48 hours; format: cell-based; conditions: Homo sapiens, UMUC3, JM118 first, read-out: Growth inhibition
Procedure: (§4) Gemcitabine was dissolved in saline at a concentration of 10 mM. Cells were seeded at 1,500 cells per well.
Cells were incubated with both compounds sequentially, wherein cells were incubated with JM118 first.

[6] = test system: UM-UC-3 cell line; assay: SRB assay, sequential: gemcitabine 48 hours, followed by JM118 48 hours; format: cell-based; conditions: Homo sapiens, UMUC3, Gemcitabine first, read-out: Growth inhibition
Procedure: as §4
Cells were incubated with both compounds sequentially, wherein cells were incubated with gemcitabine first.

In the case of `O=c1[nH]cc(F)c(=O)[nH]1` [5FU, 5-fluorouracil], the inhibition at 0.3125 µM ([1]; JM118 0 + 5FU 0.3125 μM) is reported as 1.1%, the inhibition at 0.625 µM ([1]; JM118 0 + 5FU 0.625 μM) is reported as 2.9% and the inhibition at 1.25 µM ([1]; JM118 0 + 5FU 1.25 μM) is reported as 7.2%. It also gave an inhibition at 2.5 µM ([1]; JM118 0 + 5FU 2.5 μM) of 17.3%, an inhibition at 5 µM ([1]; JM118 0 + 5FU 5 μM) of 37.4% and an inhibition at 10 µM ([1]; JM118 0 + 5FU 10 μM) of 67.7%.
With `CCCCCOC(=O)Nc1nc(=O)n([C@@H]2O[C@H](C)[C@@H](O)[C@H]2O)cc1F` [Capecitabine] the “tumor log cell kill” value ([2]; capecitabine 750 mg/kg alone) was 0.2, the Median tumor volume ([2]; D21) was 98.8 mm^3 and the T/C % ([2]; D21) was 124%. The Median tumor volume ([2]; D26) was 217.5 mm^3, the T/C % ([2]; D26) was 114% and the Median tumor volume ([2]; D29) was 322.1 mm^3. For the same molecule, the T/C % ([2]; D29) was 81%, the Median tumor volume ([2]; D33) was 498.2 mm^3 and the T/C % ([2]; D33) was 65%. The Median tumor volume ([2]; D36) was 711.0 mm^3, the T/C % ([2]; D36) was 62% and the Median tumor volume ([2]; D40) was 1046.3 mm^3. It also gave a T/C % ([2]; D40) of 66%, a Median tumor volume ([2]; D43) of 1598.0 mm^3 and a T/C % ([2]; D43) of 68%.
In the case of `N.N.[Cl][Pt][Cl]` [Cisplatin], the IC50 [3] is reported as 0.23 µM, the IC50 ([4]; A129 cp80, 48 hours) is reported as 15.1 µM and the “RR (relative resistance)” value ([4]; A129 cp80 versus A129) is reported as 80 +/− 25.
In the case of `Nc1ccn([C@@H]2O[C@H](CO)[C@@H](O)C2(F)F)c(=O)n1` [Gemcitabine, 2′,2′-difluorodeoxycytidine], the inhibition at 0.002 µM ([5]; JM118 0 + Gemcitabine 0.0020 μM) is reported as 2.6%, the inhibition at 0.0039 µM ([5]; JM118 0 + Gemcitabine 0.0039 μM) is reported as 8.7% and the inhibition at 0.0078 µM ([5]; JM118 0 + Gemcitabine 0.0078 μM) is reported as 23.4%. The inhibition at 0.0156 µM ([5]; JM118 0 + Gemcitabine 0.0156 μM) was 43.9%, the inhibition at 0.0313 µM ([5]; JM118 0 + Gemcitabine 0.0313 μM) was 57.8% and the inhibition at 0.0625 µM ([5]; JM118 0 + Gemcitabine 0.0625 μM) was 63.3%. It also gave an inhibition at 0.0015625 µM ([6]; JM118 0 + Gemcitabine 0.0015625 μM) of 0.2%, an inhibition at 0.003125 µM ([6]; JM118 0 + Gemcitabine 0.003125 μM) of 1.2% and an inhibition at 0.00625 µM ([6]; JM118 0 + Gemcitabine 0.00625 μM) of 8.3%. It also gave an inhibition at 0.0125 µM ([6]; JM118 0 + Gemcitabine 0.0125 μM) of 41.7%, an inhibition at 0.025 µM ([6]; JM118 0 + Gemcitabine 0.025 μM) of 87.8% and an inhibition at 0.05 µM ([6]; JM118 0 + Gemcitabine 0.05 μM) of 103%.
`CC(=O)[O][Pt]([NH2])([Cl])([Cl])([NH]C1CCCCC1)[O]C(C)=O` [Satraplatin] was tested, and the toxicity in mice ([2]; satraplatin 45 mg/kg) was “toxic effects”.
